Test results published in ChEMBL document CHEMBL6114979, “Discovery of 3-indolylbenzoquinone derivatives with therapeutic potential for breast cancer” (Bioorg Med Chem, 2025).
Converted amounts (≈) assume the structure as drawn. The source made the active and inactive calls. The rule behind the calls is not given here.

Experiments:
4T1 [1] = test: Antitumor activity against mouse 4T1 cells implanted in Balb/c mouse assessed as appearance of chromatin aggregation at 25 to 35 mg/kg, ip administered once every 2 days for 14 days by TEM analysis; type: functional, organism-based; conditions: dose 25-35 mg/kg, time 14.0 day
4T1 [2] = test: Antitumor activity against mouse 4T1 cells implanted in Balb/c mouse assessed as appearance of mitochondrial swelling at 25 to 35 mg/kg, ip administered once every 2 days for 14 days by TEM analysis; type: functional, organism-based; conditions: dose 25-35 mg/kg, time 14.0 day
4T1 [3] = test: Antitumor activity against mouse 4T1 cells implanted in Balb/c mouse assessed as damage in endoplasmic reticulum at 25 to 35 mg/kg, ip administered once every 2 days for 14 days by TEM analysis; type: functional, organism-based; conditions: dose 25-35 mg/kg, time 14.0 day
4T1 [4] = test: Antitumor activity against mouse 4T1 cells implanted in Balb/c mouse assessed as appearance of mitochondrial swelling at 80 mg/kg, IT administered once every 4 days for 14 days in presence of olive oil by TEM analysis; type: functional, organism-based; conditions: time 14.0 day
[5] = Solubility of compound in water; type: physicochemical
MDA-MB-231 [6] = test: Induction of cell cycle arrest in human MDA-MB-231 cells assessed as accumulation of cells at S phase at 1 uM incubated for 24 hrs by PI staining based flow cytometric analysis (reference value: 8.71%); type: functional
A549 = test: Antiproliferative activity against human A549 cells assessed as inhibition of cell proliferation incubated for 48 hrs by CCK-8 assay; type: functional, cell-based; conditions: A549, 48 h
[7] = Toxicity in Kunming mouse assessed as change in liver lesions at 240 to 469 mg/kg, ip administered for 14 days by H and E staining based analysis; type: organism-based; conditions: in vivo, 336 h, dose 240-469 mg/kg, time 14 day
[8] = Toxicity in female Balb/c mouse implanted with mouse 4T1 cells assessed as behavioural changes at 25 to 35 mg/kg, ip administered once every 2 days; type: organism-based; conditions: in vivo, 48 h, dose 25-35 mg/kg, time 2 day
4T1 [9] = test: Antitumor activity against mouse 4T1 cells implanted in Balb/c mouse assessed as appearance of vacuolation at 200 mg/kg, TOP administration once every 2 days for 14 days; type: functional, organism-based; conditions: time 14.0 day
4T1 [10] = test: Antitumor activity against mouse 4T1 cells implanted in Balb/c mouse assessed as reduction in tumor volume at 80 mg/kg, IT administered once every 4 days in presence of olive oil; type: functional, organism-based
[11] = Toxicity in Kunming mouse assessed as appearance of mononuclear macrophages in alveolar lumen at 240 to 469 mg/kg, ip administered for 14 days by H and E staining based analysis; type: organism-based; conditions: in vivo, 336 h, dose 240-469 mg/kg, time 14 day
HUVEC = test: Cytotoxicity against human HUVEC cells; type: toxicity, cell-based
[12] = Hepatotoxicity in Kunming mouse assessed as change in AST level administered intraperitoneally for 14 days (reference value: 153.25 +/- 15.26 U); type: toxicity; conditions: in vivo, ip, 336 h, time 14 day
4T1 [13] = test: Antitumor activity against mouse 4T1 cells implanted in Balb/c mouse assessed as appearance of central tumor necrosis at 35 mg/kg, ip administered once every 2 days for 14 days relative to control; type: functional; conditions: time 14 day
[14] = Solubility of compound in 0.1 M HCL; type: physicochemical
4T1 [15] = test: Antitumor activity against mouse 4T1 cells implanted in Balb/c mouse assessed as appearance of chromatin aggregation at 80 mg/kg, IT administered once every 4 days for 14 days in presence of olive oil by TEM analysis; type: functional, organism-based; conditions: time 14.0 day
MDA-MB-231 [16] = test: Induction of apoptosis in human MDA-MB-231 cells assessed as early apoptotic cells at 1 uM incubated for 24 hrs by Annexin-V/PI staining based flow cytometric analysis (reference value: 2.69%); type: functional
4T1 [17] = test: Antitumor activity against mouse 4T1 cells implanted in Balb/c mouse assessed as appearance of loosely arranged tumor cells at 35 mg/kg, ip administered once every 2 days for 14 days; type: functional, organism-based; conditions: time 14.0 day
[18] = Toxicity in Kunming mouse assessed as lethal dose administered intraperitoneally for 14 days; conditions: in vivo, route ip, time 14 day
[19] = Toxicity in female Balb/c mouse implanted with mouse 4T1 cells assessed as change in body weight at 25 to 35 mg/kg, ip administered once every 2 days; type: organism-based; conditions: in vivo, 48 h, dose 25-35 mg/kg, time 2 day
4T1 [20] = test: Antitumor activity against mouse 4T1 cells implanted in Balb/c mouse assessed as reduction in tumor size at 80 mg/kg, IT administered once every 4 days in presence of olive oil; type: functional, organism-based
[21] = Cardiotoxicity in Kunming mouse assessed as change in CK level administered intraperitoneally for 14 days (reference value: 851.75 +/- 87.81 U); type: toxicity; conditions: in vivo, ip, 336 h, time 14 day
[22] = Toxicity in female Balb/c mouse implanted with mouse 4T1 cells assessed as abnormalities in heart at 35 mg/kg, ip administered once every 2 days for 14 days; type: organism-based; conditions: in vivo, 336 h, time 14 day
MDA-MB-231 [23] = test: Induction of apoptosis in human MDA-MB-231 cells assessed as increase in red fluorescence at 1 uM incubated for 24 hrs in presence of doxorubicin by fluorescence microscopic analysis; type: functional, cell-based
[24] = Nephrotoxicity in Kunming mouse assessed as change in BUN level administered intraperitoneally for 14 days (reference value: 8.65 +/- 2.66 U); type: toxicity; conditions: in vivo, ip, 336 h, time 14 day
MDA-MB-231 [25] = test: Antiproliferative activity against human MDA-MB-231 cells assessed as inhibition of cell proliferation incubated for 48 hrs by CCK-8 assay; type: functional, cell-based; conditions: MDA-MB-231, 48 h
MDA-MB-231 [26] = test: Induction of apoptosis in human MDA-MB-231 cells assessed as viable cells at 1 uM incubated for 24 hrs by Annexin-V/PI staining based flow cytometric analysis (reference value: 93.37%); type: functional; conditions: read-out: Activity
4T1 [27] = test: Antitumor activity against mouse 4T1 cells implanted in Balb/c mouse assessed as appearance of irregular necrotic foci at 25 mg/kg, ip administered once every 2 days for 14 days; type: functional, organism-based; conditions: time 14.0 day
4T1 [28] = test: Antitumor activity against mouse 4T1 cells implanted in Balb/c mouse assessed as reduction in tumor volume at 25 to 35 mg/kg, ip administered once every 2 days for 14 days; type: functional, organism-based; conditions: dose 25-35 mg/kg, time 14.0 day
[29] = target: Phosphatidylinositol 4,5-bisphosphate 3-kinase catalytic subunit alpha (Homo sapiens) (UniProt P42336); test: Binding affinity to P13Kalpha in human MDA-MB-231 cells assessed as thermal stabilization at 6.4 uM incubated for 2 hrs by CETSA based Western blotting analysis
[30] = Toxicity in female Balb/c mouse implanted with mouse 4T1 cells assessed as abnormalities in lungs at 35 mg/kg, ip administered once every 2 days for 14 days; type: organism-based; conditions: in vivo, 336 h, time 14 day
[31] = Toxicity in female Balb/c mouse implanted with mouse 4T1 cells assessed as mortality at 25 to 35 mg/kg, ip administered once every 2 days; type: organism-based; conditions: in vivo, 48 h, dose 25-35 mg/kg, time 2 day
[32] = Nephrotoxicity in Kunming mouse assessed as change in CREA level administered intraperitoneally for 14 days (reference value: 16 +/- 2.45 U); type: toxicity; conditions: in vivo, ip, 336 h, time 14 day
[33] = Toxicity in Kunming mouse assessed as infiltration of chronic inflammatory cells at 240 to 469 mg/kg, ip administered for 14 days by H and E staining based analysis; type: organism-based; conditions: in vivo, 336 h, dose 240-469 mg/kg, time 14 day
HepG2 = test: Antiproliferative activity against human HepG2 cells assessed as inhibition of cell proliferation incubated for 48 hrs by CCK-8 assay; type: functional, cell-based; conditions: HepG2, 48 h

Chain of Phosphatidylinositol 4,5-bisphosphate 3-kinase catalytic subunit alpha (Homo sapiens) (P42336 whole entry, looked up): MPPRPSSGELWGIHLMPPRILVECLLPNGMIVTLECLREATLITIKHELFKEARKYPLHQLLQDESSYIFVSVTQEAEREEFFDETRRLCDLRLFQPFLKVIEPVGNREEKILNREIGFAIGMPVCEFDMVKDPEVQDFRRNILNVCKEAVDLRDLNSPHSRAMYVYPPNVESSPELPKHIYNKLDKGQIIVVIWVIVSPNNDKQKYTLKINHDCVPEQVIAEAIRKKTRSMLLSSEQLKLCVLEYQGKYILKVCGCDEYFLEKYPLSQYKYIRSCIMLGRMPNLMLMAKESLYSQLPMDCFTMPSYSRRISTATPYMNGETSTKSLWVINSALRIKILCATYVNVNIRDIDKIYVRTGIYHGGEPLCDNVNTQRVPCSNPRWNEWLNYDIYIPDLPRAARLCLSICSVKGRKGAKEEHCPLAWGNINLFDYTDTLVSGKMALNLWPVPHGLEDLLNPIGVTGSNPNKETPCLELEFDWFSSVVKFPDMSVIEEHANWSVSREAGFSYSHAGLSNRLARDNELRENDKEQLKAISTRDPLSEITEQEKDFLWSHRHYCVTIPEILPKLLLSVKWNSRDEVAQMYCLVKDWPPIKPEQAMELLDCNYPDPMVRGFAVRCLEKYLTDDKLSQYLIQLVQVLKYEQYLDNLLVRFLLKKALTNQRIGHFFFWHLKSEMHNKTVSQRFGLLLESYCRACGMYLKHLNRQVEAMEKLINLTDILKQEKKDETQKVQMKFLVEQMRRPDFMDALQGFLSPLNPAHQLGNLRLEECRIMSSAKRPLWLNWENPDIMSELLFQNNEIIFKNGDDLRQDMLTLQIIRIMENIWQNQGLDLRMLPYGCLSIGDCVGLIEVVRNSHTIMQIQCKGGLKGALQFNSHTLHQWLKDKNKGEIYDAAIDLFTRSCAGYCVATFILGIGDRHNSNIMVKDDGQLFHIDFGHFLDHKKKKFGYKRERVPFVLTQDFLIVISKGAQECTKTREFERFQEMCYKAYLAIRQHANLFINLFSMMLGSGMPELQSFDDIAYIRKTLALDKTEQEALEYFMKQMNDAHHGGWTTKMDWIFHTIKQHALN

## Cc1[nH]c2ccccc2c1C1=C(F)C(=O)C(F)=C(N2CCOCC2)C1=O
4T1 [1]
  Activity: Active
4T1 [2]
  Activity: Active
4T1 [3]
  Activity: Active
4T1 [4]
  Activity: Active
[5]
  solubility: 28 µg/mL (≈ 78.1 µM)
MDA-MB-231 [6]
  Activity: 4.21%
A549
  IC50: 5.21 µM
[7]
  Activity: Non-toxic
[8]
  Activity: Non-toxic
4T1 [9]
  Activity: Active
4T1 [10]
  Activity: Active
[11]
  Activity: Toxic
HUVEC
  Activity: Toxic
[12]
  Activity: 106 U/L
4T1 [13]
  Activity: 100%
[14]
  solubility: 19 µg/mL (≈ 53 µM)
4T1 [15]
  Activity: Active
MDA-MB-231 [16]
  Activity: 24.53%
4T1 [17]
  Activity: Active
[18]
  LD50 at 336 h: 385 mg/kg
[19]
  Activity: Non-toxic
4T1 [20]
  Activity: Active
[21]
  Activity: 812 U/L
[22]
  Activity: Non-toxic
MDA-MB-231 [23]
  Activity: Active; Compound Showed More Effect Than Mitoxantrone Treated Group
[24]
  Activity: 6.26 U
MDA-MB-231 [25]
  IC50: 3.2 µM
MDA-MB-231 [26]
  viability at 1 µM: 45.1%
4T1 [27]
  Activity: Active
4T1 [28]
  Activity: Active
[29]
  Activity: Active
[30]
  Activity: Non-toxic
[31]
  Activity: Non-toxic
[32]
  Activity: 12.25 U
[33]
  Activity: Toxic
HepG2
  IC50: 3.94 µM
